Assay results: PubChem BioAssay (NCI)
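Grown in 96-well plates, cells were treated for 48 hours with each compound at five concentrations. Insufficient inhibition: endpoint recorded as highest concentration tested. Definition used: TGI = concentration required for complete inhibition of growth.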 Where a SMILES comes first, the peptide text is derived from it. [ ]: non-standard residue; d: D form. The star is where a group is joined. Boc = CC(C)(C)OC(=O)*; Lac = C[CH](O)C(=O)O; OBn = c1ccc(CO*)cc1

Tests used:
Assay in all cases: NCI anticancer screen, dose series, 48 h
T-47D breast = tested on: T-47D breast
SK-OV-3 ovarian = tested on: SK-OV-3 ovarian
OVCAR-3 ovarian = tested on: OVCAR-3 ovarian
HCT-15 colon = tested on: HCT-15 colon
K-562 leukemia = tested on: K-562 leukemia
SR leukemia = tested on: SR leukemia
CCRF-CEM leukemia = tested on: CCRF-CEM leukemia
HCT-116 colon = tested on: HCT-116 colon
SNB-75 CNS = tested on: SNB-75 CNS
IGROV1 ovarian = tested on: IGROV1 ovarian
SK-MEL-5 melanoma = tested on: SK-MEL-5 melanoma
NCI/ADR-RES ovarian = tested on: NCI/ADR-RES ovarian
RPMI-8226 leukemia = tested on: RPMI-8226 leukemia
OVCAR-5 ovarian = tested on: OVCAR-5 ovarian
NCI-H23 lung = tested on: NCI-H23 lung
MDA-MB-231 breast = tested on: MDA-MB-231 breast
DU-145 prostate = tested on: DU-145 prostate
MDA-N = tested on: MDA-N
MDA-MB-435 = tested on: MDA-MB-435
MCF7 breast = tested on: MCF7 breast

Row | SMILES | TGI (T-47D breast) [µM] | TGI (SK-OV-3 ovarian) [µM] | TGI (OVCAR-3 ovarian) [µM] | TGI (HCT-15 colon) [µM] | TGI (K-562 leukemia) [µM] | TGI (SR leukemia) [µM] | TGI (CCRF-CEM leukemia) [µM] | TGI (HCT-116 colon) [µM] | TGI (SNB-75 CNS) [µM] | TGI (IGROV1 ovarian) [µM] | TGI (SK-MEL-5 melanoma) [µM] | TGI (NCI/ADR-RES ovarian) [µM] | TGI (RPMI-8226 leukemia) [µM] | TGI (OVCAR-5 ovarian) [µM] | TGI (NCI-H23 lung) [µM] | TGI (MDA-MB-231 breast) [µM] | TGI (DU-145 prostate) [µM] | TGI (MDA-N) [µM] | TGI (MDA-MB-435) [µM] | TGI (MCF7 breast) [µM]
1 | NC(CCCCCCCCCCP(=O)(O)O)C(=O)O (stereo not given) | > 100 | > 100 | > 100 | > 100 | > 100 | > 100 | > 100 | > 100 | > 100 | > 100 | > 100 | > 100 | > 100 | > 100 | > 100 | > 100 | > 100 | > 100 | > 100 | > 100
2 | CC(OC(=O)C(Cc1ccccc1)NC(=O)C(Cc1ccccc1)NC(=O)OC(C)(C)C)C(=O)OCc1ccccc1 (stereo not drawn) (Boc-Phe-Phe-[Lac]-OBn; configuration not given here) | > 100 | > 100 | > 100 | > 100 | > 100 | > 100 | > 100 | > 100 | > 100 | > 100 | > 100 | > 100 | > 100 | > 100 | > 100 | > 100 | > 100 | > 100 | > 100 | 54.6
